Assay results: ChEMBL document CHEMBL1201862, “PubChem BioAssay data set” (2004)
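Cultured in 96-well plates, cells were exposed to test compound for 48 hours across five concentrations. GI50 = concentration required for 50% inhibition of growth.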 Active and inactive are the calls of the source. Rule as the data show it: active = GI50 up to about 1.1 µM and inactive = higher.

Legend:
Test in all cases: DTP human tumour cell line panel, 48 h
UACC-257 = test system: UACC-257
SK-MEL-28 = test system: SK-MEL-28
CCRF-CEM = test system: CCRF-CEM
SR = test system: SR
SF-539 = test system: SF-539
HCT-15 = test system: HCT-15
HOP-92 = test system: HOP-92
KM-20L2 = test system: KM-20L2
SK-MEL-5 = test system: SK-MEL-5
HL-60 = test system: HL-60
786-0 = test system: 786-0
K562 = test system: K562
MOLT-4 = test system: MOLT-4
OVCAR-4 = test system: OVCAR-4
CAKI-1 = test system: CAKI-1
HOP-62 = test system: HOP-62
SK-OV-3 = test system: SK-OV-3
A549 = test system: A549

Measured: GI50

CC(CC[C@@H](C)C1CCC2[C@@H]3CC(O)C4CC(O)[C@@H](O)C[C@]4(C)C3CC[C@@]21C)C(C)(C)C (some centres not stated)
> 100 µM: HCT-15
inactive: UACC-257 > 100 µM | SK-MEL-28 > 100 µM | CCRF-CEM > 100 µM | SR > 100 µM | SF-539 > 100 µM | HOP-92 > 100 µM | KM-20L2 > 100 µM | SK-MEL-5 > 100 µM | HL-60 > 100 µM | 786-0 > 100 µM | K562 > 100 µM | MOLT-4 > 100 µM | OVCAR-4 > 100 µM | CAKI-1 > 100 µM | HOP-62 > 100 µM | SK-OV-3 > 100 µM | A549 > 100 µM

[O-][Cl+3]([O-])([O-])O.c1ccc(/N=c2\nc(N3CCOCC3)ss2)cc1
inactive: UACC-257 15.8 µM | SK-MEL-28 17.2 µM | SR 16.6 µM | SF-539 18.3 µM | HOP-92 21.9 µM | KM-20L2 16.5 µM | SK-MEL-5 34.2 µM | HL-60 14.6 µM | 786-0 16.4 µM | K562 16.5 µM | MOLT-4 12.3 µM | OVCAR-4 15.7 µM | CAKI-1 20.2 µM | HOP-62 41.3 µM | SK-OV-3 > 100 µM | A549 33.4 µM
15.5 µM: HCT-15
active: CCRF-CEM 0.016 µM

CCOC(=O)CCC(=O)C1c2cccc(O)c2C(=O)c2c(O)cc(C)cc21 (configuration not stated)
inactive: UACC-257 1.41 µM | SK-MEL-28 1.48 µM | HOP-92 1.46 µM | KM-20L2 1.83 µM | 786-0 1.32 µM | MOLT-4 2.1 µM | CAKI-1 1.79 µM
active: CCRF-CEM 0.519 µM | SR 0.743 µM | SF-539 0.226 µM | SK-MEL-5 0.676 µM | HL-60 0.676 µM | K562 0.429 µM | OVCAR-4 0.569 µM | HOP-62 0.656 µM | SK-OV-3 0.865 µM | A549 0.695 µM
0.826 µM: HCT-15

CC(=S)NNC(=O)c1ccncc1
> 100 µM: HCT-15
inactive: UACC-257 > 100 µM | SK-MEL-28 > 100 µM | CCRF-CEM > 100 µM | SR > 100 µM | SF-539 > 100 µM | HOP-92 > 100 µM | KM-20L2 > 100 µM | SK-MEL-5 > 100 µM | HL-60 > 100 µM | 786-0 > 100 µM | K562 > 100 µM | MOLT-4 > 100 µM | OVCAR-4 > 100 µM | CAKI-1 > 100 µM | HOP-62 > 100 µM | SK-OV-3 > 100 µM | A549 > 100 µM
